Results from patent publication US20070128217A1 (priority 2003, published 2007).

Key:
[1] = system: recombinant human anti-SARS-CoV antibody 03-018; type: binding; design: Binding of antibody 03-018 to linear peptides of the N protein of SARS-CoV Urbani / Binding of antibody 03-018 to looped/cyclic peptides of the N protein of SARS-CoV Urbani: unit not given here
[2] = system: control sera (pooled serum of ten healthy LUMC hospital workers; commercial negative donor pooled serum from the Dutch bloodbank); type: binding, human; design: Binding of Control serum LUMC to linear peptides / Binding of Control serum Blood-bank to linear peptides / Binding of Control serum LUMC to looped peptides / Binding of Control Serum Blood-Bank to Looped peptides / Binding of Control serum LUMC to linear peptides of the protein M of SARS-CoV Urbani / Binding of Control serum Blood-bank to linear peptides of the protein M of SARS-CoV Urbani / Binding of Control serum LUMC to looped peptides of the protein M of SARS-CoV Urbani / Binding of Control Serum Blood-Bank to Looped peptides of the protein M of SARS-CoV Urbani: unit not given here
[3] = system: rabbit serum obtained by immunizing a rabbit with the SARS-CoV strain Frankfurt 1; type: binding; design: Binding of a rabbit serum to linear peptides / Binding of a rabbit serum to looped peptides / Rabbit serum linear peptides / Rabbit serum looped peptides / Binding of a rabbit serum to linear peptides of protein N of SARS-CoV Urbani (Rabbit serum linear peptides) / Binding of a rabbit serum to looped/cyclic peptides of protein N of SARS-CoV Urbani (Rabbit serum looped peptides): unit not given here
[4] = system: antibodies in sera from SARS patients (sera 1a, 1b, 2, 6, 37, 62, London, SARS-yellow, SARS-green); type: binding, human; design: Binding of serum 6 to linear peptides of protein X1 of SARS-CoV Urbani / Binding of serum 37 to linear peptides of protein X1 of SARS-CoV Urbani / Binding of serum 6 to looped/cyclic peptide (PEPSCAN-ELISA) / Binding of serum 37 to looped/cyclic peptide (PEPSCAN-ELISA) / Binding of serum 37 to looped/cyclic peptides of protein X1 of SARS-CoV Urbani / Binding of serum 6 to linear peptides of protein X2 / Binding of serum 37 to linear peptides of protein X2 / Binding of serum 37 to looped/cyclic peptides of protein X2 of SARS-CoV Urbani / Binding of serum 6 to linear peptides of protein M of SARS-CoV Urbani / Binding of serum 37 to linear peptides of protein M of SARS-CoV Urbani / Binding of serum 6 to looped/cyclic peptides of protein M of SARS-CoV Urbani / Binding of serum 37 to looped/cyclic peptides of protein M of SARS-CoV Urbani / Binding of serum 6 to linear peptides of protein X3 of SARS-CoV Urbani / Binding of serum 37 to linear peptides of protein X3 of SARS-CoV Urbani / Binding of serum 37 to looped/cyclic peptides of protein X3 of SARS-CoV Urbani / Binding of serum 6 to linear peptides of protein X4 of SARS-CoV Urbani / Binding of serum 37 to linear peptides of protein X4 of SARS-CoV Urbani / Binding of serum 37 to looped/cyclic peptides of protein X4 of SARS-CoV Urbani / Binding of serum 6 to linear peptides of protein X5 of SARS-CoV Urbani / Binding of serum 37 to linear peptides of protein X5 of SARS-CoV Urbani / Binding of serum 37 to looped/cyclic peptides of protein X5 of SARS-CoV Urbani / Binding of serum 6 to linear peptides of protein N of SARS-CoV Urbani / Binding of serum 37 to linear peptides of protein N of SARS-CoV Urbani / Binding of serum 6 to linear peptide (PEPSCAN-ELISA) / Binding of serum 1a to looped/cyclic peptides of protein N of SARS-CoV Urbani / Binding of serum 1b to looped/cyclic peptides of protein N of SARS-CoV Urbani / Binding of serum 2 to looped/cyclic peptides of protein N of SARS-CoV Urbani / Binding of serum 6 to looped/cyclic peptides of protein N of SARS-CoV Urbani / Binding of serum 37 to looped/cyclic peptides of protein N of SARS-CoV Urbani / Binding of serum 62 to looped/cyclic peptides of protein N of SARS-CoV Urbani / Binding of serum London to looped/cyclic peptides of protein N of SARS-CoV Urbani / Binding of serum SARS-green to looped/cyclic peptides of protein N of SARS-CoV Urbani: unit not given here

Sequence	Binding of antibody 03-018 to linear peptides of the N protein of SARS-CoV Urbani [1]	Binding of antibody 03-018 to looped/cyclic peptides of the N protein of SARS-CoV Urbani [1]	Binding of a rabbit serum to linear peptides of protein N of SARS-CoV Urbani (Rabbit serum linear peptides) [3]	Binding of a rabbit serum to looped/cyclic peptides of protein N of SARS-CoV Urbani (Rabbit serum looped peptides) [3]	Binding of serum 1a to linear peptides of protein N of SARS-CoV Urbani [4]	Binding of serum 1a to looped/cyclic peptides of protein N of SARS-CoV Urbani [4]	Binding of serum 1b to linear peptides of protein N of SARS-CoV Urbani [4]	Binding of serum 1b to looped/cyclic peptides of protein N of SARS-CoV Urbani [4]	Binding of serum 2 to linear peptides of protein N of SARS-CoV Urbani [4]	Binding of serum 2 to looped/cyclic peptides of protein N of SARS-CoV Urbani [4]	Binding of serum 6 to linear peptides of protein N of SARS-CoV Urbani [4]	Binding of serum 6 to looped/cyclic peptides of protein N of SARS-CoV Urbani [4]	Binding of serum 37 to linear peptides of protein N of SARS-CoV Urbani [4]	Binding of serum 37 to looped/cyclic peptides of protein N of SARS-CoV Urbani [4]	Binding of serum 62 to linear peptides of protein N of SARS-CoV Urbani [4]	Binding of serum 62 to looped/cyclic peptides of protein N of SARS-CoV Urbani [4]	Binding of serum London to linear peptides of protein N of SARS-CoV Urbani [4]	Binding of serum London to looped/cyclic peptides of protein N of SARS-CoV Urbani [4]	Binding of serum SARS-green to linear peptides of protein N of SARS-CoV Urbani [4]	Binding of serum SARS-green to looped/cyclic peptides of protein N of SARS-CoV Urbani [4]	other results
PNNTASWFTALTQHG	0.1	0.3	0.1	0.4	0.2	0.4	0.1	0.2	0.2	0.3	0.2	0.2	0.7	0.6	0.7	0.5	0.5	0.3	0.3	0.7	Binding of Control Serum Blood-Bank to Looped peptides [2]: 0.7; Binding of Control serum Blood-bank to linear peptides [2]: 0.5; Binding of Control serum LUMC to linear peptides [2]: 0.7; Binding of Control serum LUMC to looped peptides [2]: 0.7; Binding of serum SARS-yellow to linear peptides of protein N of SARS-CoV Urbani [4]: 0.4; Binding of serum SARS-yellow to looped/cyclic peptides of protein N of SARS-CoV Urbani [4]: 0.6
ATEGALNTPKDHIGT	0.1	0.2	0.1	0.1	0.2	0.3	0.1	0.2	0.3	0.4	0.1	0.2	0.7	0.4	0.7	0.3	0.5	0.3	0.4	0.3	Binding of Control Serum Blood-Bank to Looped peptides [2]: 0.5; Binding of Control serum Blood-bank to linear peptides [2]: 0.8; Binding of Control serum LUMC to linear peptides [2]: 0.7; Binding of Control serum LUMC to looped peptides [2]: 0.5; Binding of serum SARS-yellow to linear peptides of protein N of SARS-CoV Urbani [4]: 0.6; Binding of serum SARS-yellow to looped/cyclic peptides of protein N of SARS-CoV Urbani [4]: 0.2
YHGAIKLDDKDPQFK	0.1	0.2	0.2	0.3	0.3	0.2	0.2	0.1	0.3	0.2	0.2	0.1	0.8	0.4	1.6	0.3	0.7	0.3	0.9	0.1	Control Serum Blood-Bank Looped peptides [2]: 0.4; Control serum Blood-bank linear peptides [2]: 0.9; Control serum LUMC linear peptides [2]: 0.9; Control serum LUMC looped peptides [2]: 0.3; Binding of serum SARS-yellow to linear peptides of protein N of SARS-CoV Urbani [4]: 0.7; Binding of serum SARS-yellow to looped/cyclic peptides of protein N of SARS-CoV Urbani [4]: 0.1
TFGGPTDSTDNNQNG	0.1	0.2	0.1	0.1	0.3	0.3	0.1	0.2	0.2	0.3	0.2	0.2	0.8	0.4	0.6	0.3	0.6	0.3	0.5	0.5	Binding of Control Serum Blood-Bank to Looped peptides [2]: 0.5; Binding of Control serum Blood-bank to linear peptides [2]: 0.8; Binding of Control serum LUMC to linear peptides [2]: 0.7; Binding of Control serum LUMC to looped peptides [2]: 0.5; Binding of serum SARS-yellow to linear peptides of protein N of SARS-CoV Urbani [4]: 0.5; Binding of serum SARS-yellow to looped/cyclic peptides of protein N of SARS-CoV Urbani [4]: 0.1
